Assay results: patent US20220048915A1 (SHANGHAI PHARMACEUTICALS HOLDING CO., LTD., priority 2018, published 2022)
Values joined by “and” are separate entries in the source; they are usually repeats but may differ in a detail not shown here. Equal entries are not always repeated.

Tests used:
[1] = Pharmacokinetic properties in rats; format: in vivo, SD rats
Method: Ten male SD rats, weighing 180-220 g (provided by Shanghai Xipuerbikai Laboratory Animal Co., Ltd, Certificate No.: 20130016008116). The rats were fasted for feed for 12-16 hours before the experiment but water was allowed.
Blood samples were collected from the fundus vein of rats before and at 2, 5, 15, 30, 60, 90, 120, 240, 360, 480, 600 and 1440 minutes after administration, respectively.
Blood samples were collected from the fundus vein of rats before and at 5, 15, 30, 60, 90, 120, 240, 360, 480, 600, 1440 minutes after administration respectively.
Blood samples were centrifuged at 8000 rpm for 5 minutes, and supernatant plasma was taken. To 50 μL of plasma samples was added 300 μL of acetonitrile containing internal standard (propranolol, 25 ng/mL) to precipitate the protein. After vortexing for 10 minutes and centrifuging at 6000 g and 4° C. for 10 minutes, the supernatant was taken and placed in a 96-well plate for determination of drug concentration in plasma by UPLC/MS-MS.

TNF-α = assay: Lipopolysaccharide (LPS)-induced inflammation model in mice, TNF-α in serum by ELISA; format: in vivo, C57BL/6J mice
Method: Male SPF-grade C57BL/6J mice, 6-8 weeks old, provided by Shanghai Ling Chang Biotechnology Co., Ltd. Animals were housed in clean-grade plastic cages (light and dark cycle 12/12 hours, temperature 22±2° C., humidity 50±10%, pellet feed, free drinking water).
1. Mice were weighed and administered according to an administration volume of 10 mL/kg, and oral administration by gavage was given for the first time. Each mouse was administrated at an interval of 3 minutes.
2. One hour after the first administration, LPS 5 mpk was administered intraperitoneally at an administration volume of 10 mL/kg.
3. 4 hours after the first administration, a second oral administration by gavage was given according to the administration volume of 10 mL/kg.
4. 6 hours after LPS intraperitoneal injection, mice were sacrificed, serum and cerebral cortex and hippocampus were sampled. After weighing the wet weight and they were put into liquid nitrogen for quick-freezing and storage.

p38β = p38β (Homo sapiens, UniProt Q15759); assay: In vitro inhibition of p38 kinase (LANCE Ultra TR-FRET); format: biochemical
Sequence of p38β (Q15759 whole entry): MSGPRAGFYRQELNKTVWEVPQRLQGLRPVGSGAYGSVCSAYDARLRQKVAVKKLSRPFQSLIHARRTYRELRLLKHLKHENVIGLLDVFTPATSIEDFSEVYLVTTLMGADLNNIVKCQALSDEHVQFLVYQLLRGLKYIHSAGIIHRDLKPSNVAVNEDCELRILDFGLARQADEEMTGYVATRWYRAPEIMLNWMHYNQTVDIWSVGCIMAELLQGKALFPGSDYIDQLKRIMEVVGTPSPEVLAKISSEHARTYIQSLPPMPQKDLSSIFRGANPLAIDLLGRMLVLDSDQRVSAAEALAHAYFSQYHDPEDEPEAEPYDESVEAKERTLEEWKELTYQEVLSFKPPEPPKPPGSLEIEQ

[2] = Drug concentration in mice brain; format: in vivo, ICR mice; settings: FIG. 1
Method: Blood samples were collected from the fundus vein of mice before and at 5, 15, 30, 60, 90, 120, 240, 480 and 1440 minutes of administration, respectively.
2-3 time points were taken for each mouse. The mice were sacrificed at 5, 15, 30, 60 and 1440 minutes after the administration (3 mice per time point), and the brains were taken, rinsed with saline, dried on filter paper and weighed.
Brain tissues were weighed, homogenized in saline (1:4, w/v). 50 μL of homogenized samples were taken, added with 300 μL of acetonitrile containing internal standard (propranolol, 25 ng/mL) to precipitate protein. After vortexing for 10 minutes and centrifuging at 6000 g for 10 minutes, 80 μL of supernatant was taken and placed in a 96-well plate for determination of drug concentration in tissue by UPLC/MS-MS, as shown in Table 2.

BV-2 cells = assay: Inhibition of inflammation in LPS-stimulated BV-2 cells (ELISA of inflammatory factors); format: cell-based; settings: Mus musculus, 100 ng/mL LPS 4 hours
In short: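 BV-2 cells (passage 8) pre-treated 1 h with compound (4-fold dilutions from 10,000 nM, 0.1% DMSO), then stimulated with 100 ng/mL LPS plus compound for 4 h at 37 °C. Supernatant IL-10, TNFα etc. measured by ELISA (OD450); % inhibition vs high/low controls, IC50 by curve fit.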

[3] = male, SD, plasma, rat, po 6 mg/kg

clearance ([1]; male, SD, plasma, rat, iv 3 mg/kg): 8.33 mL/min/kg
Vd ([1]; male, SD, plasma, rat, iv 3 mg/kg, read-out: Vss (iv)): 2.1 L/kg
Cmax [1, 3]: 994 ng/mL
MRT [1, 3]: 7.5 h
Tmax [1, 3]: 4.5 h
Thalf (iv) ([1]; rat, iv 3 mg/kg): 3.4 h
BA ([1]; rat, po 6 mg/kg vs iv 3 mg/kg): 68.9%
AUClast (po) ([1]; rat, po 6 mg/kg, 5-1440 minutes): 8857.1 (h)*(ng/mL)
clearance rate as fraction of that of the positive compound ([1]; rats): 1/3
absorption compared with the positive compound VX-745 at the same dose ([1]; rats, 6 mg/kg): significantly higher
AUC relative to that of the positive compound ([1]; rats, 6 mg/kg, 5-1440 minutes): 5.4 times
inhibitory activity against p38β kinase compared to the positive compound (p38β): superior inhibitory activity
IC50 (p38β; read-out: Kinase in vitro IC50(nM) p38β): 47.4 nM
concentration in mouse brain relative to the positive compound ([2]; 1 h time point): more than one time
drug concentration in mice brain compared with the positive compound ([2]; different time points): significantly higher
IC50 (BV-2 cells; read-out: BV-2 Rf IC50): 6.47 nM
Structure (SMILES): O=c1ncn2nc(Oc3ccc(F)cc3F)ccc2c1-c1c(Cl)cccc1Cl [Compound I-4, 5-(2,6-dichlorophenyl)-2-(2,4-difluorophenoxy)-6H-pyrimido[1,6-b]pyridazin-6-one]
anti-inflammatory effect compared with the VX-745_8 mpk group (TNF-α; 8 mpk): better anti-inflammatory effect
levels of TNF-α compared with the mouse inflammation model group (G2) (TNF-α; 8 mpk, P<0.01): significantly reduced
TNF-α conc. (TNF-α; serum, individual animals, 8 mg/kg po bid interval 4 h, 6 hours after LPS 5 mpk ip): 11.9 pg/mL and 127.8 pg/mL and -39.4 pg/mL and 107.7 pg/mL and 92.4 pg/mL and 17.4 pg/mL and 97.1 pg/mL and -37.7 pg/mL and 86.6 pg/mL and 58.6 pg/mL and 89.4 pg/mL and 116.9 pg/mL
Emax (BV-2 cells; read-out: BV-2 Max Inh. (%)): 100%
